Data on three compounds can be found in patent US6156790A, “C-10 carbon-substituted artemisinin-like trioxane compounds having antimalarial, antiproliferative and antitumor activities” (priority 1997, dated 2000).

Each structure is given as a SMILES string.

One data set deals with HCC-2998. The data set can be described thus: NCI 60 cell line screen (SRB), colon cancer. The data set is classed as cell-based. Conditions: Homo sapiens.
Another data set concerns SK-MEL-5. The data set can be described thus: NCI 60 cell line screen (SRB), melanoma. Type of data set: cell-based. Conditions: Homo sapiens.
The nature of data set [1]: stability of pyranosyl fluorides. Type of data set: physicochemical. The note with it: after purification. From the text:
Coupling of either the α-fluoride or the β-fluoride VI with trimethylaluminum in the presence of boron trifluoride-etherate gave 10β-methyl derivative VII where n=1 and R=CH3 with almost complete stereoselectivity, thereby implicating a common oxygen-stabilized C-10 carbocation intermediate. The relative stereochemistry at carbons 9 and 10 was established by the characteristic ^1 H NMR chemical shifts and coupling constants of the methine hydrogen atoms at these positions (J9,10 =10-11 Hz for trans and J9,10 =5.6-6.7 Hz for cis). […] Several dimethyl aluminum acetylides, prepared from Me2 AlCl and the corresponding lithium acetylides, coupled smoothly to form exclusively the 10β-acetylenic derivatives. Di- and tri-methoxylated benzenes and heteroaromatic N-methylpyrrole and furan coupled to produce exclusively, in stereochemical contrast, the 10α-oriented derivatives. Apparently, relatively small nucleophiles approach the intermediate cation from the β-face of the molecule, whereas relatively large aryl and heteroaryl nucleophiles approach from the α-face (i.e. directed by and trans to the C-9 methyl group). Coupling of pyranosyl fluoride VI with N-methylpyrrole proceeded equally well on 400 mg scale as on 20 mg scale, and larger scale executions of this and of the other coupling reactions reported here are not expected to be a problem.

The next data set concerns RPMI-8226. The data set can be described thus: cells. Type of data set: cell-based. The note with it: Homo sapiens.
A further data set deals with HL-60(TB). The data set can be described thus: cells. The note with it: Homo sapiens.
Another data set relates to P388 leukemia. The note with it: NCI Report on NSC 369397; cited from earlier work.
In the next data set the test system is P. falciparum. The note with it: two Hanian strains; cited from earlier work.
For data set [2] the following is noted: cited from earlier work.
A further data set has as its system SK-OV-3. The data set can be described thus: NCI 60 cell line screen (SRB), ovarian cancer. Conditions: Homo sapiens. Type of data set: cell-based.
The next data set relates to DU-145. The data set can be described thus: cells. The data set is classed as cell-based. The note with it: Homo sapiens.
Setting [3] is: read-out: Log10 GI50 (converted).
[4] abbreviates: read-out: Log10 TGI (converted).
Where [5] appears, read: read-out: Log10 LC50 (converted).

The term GI50 denotes the concentration that inhibits growth by half. Turning to `C[C@H]1[C@@H](F)O[C@@H]2O[C@@]3(C)CC[C@H]4[C@H](C)CC[C@@H]1[C@@]24OO3` [Compound VI, 10β-Fluorodeoxoartemisinin], in the data set with HCC-2998 (setting [3]), the GI50 is 14.5 µM. For the same compound, the results for the IC (TGI) in the data set with HCC-2998 (setting [4]) and in the data set on SK-MEL-5 (setting [4]) were 12.9 µM and 13.5 µM, respectively. The CC50 in the data set on SK-MEL-5 (setting [5]) is 61.7 µM. In data set [1], the stability of solid entry is listed as “stable crystalline solid”.
For the compound `C[C@@H]1CC[C@H]2[C@@H](C)C(=O)O[C@@H]3O[C@@]4(C)CC[C@@H]1[C@]32OO4` [Artemisinin], the CC50 with RPMI-8226 (setting [5]) was over 100 µM; in the data set on HL-60(TB) (HL-60, read-out: Log10 LC50 (converted)) it was over 100 µM. Moreover, the IC (TGI) in the data set with RPMI-8226 (read-out: Log10 TGI) was over 100 µM; in the data set on HL-60(TB) (HL-60, read-out: Log10 TGI) it was 100 µM. Further, the 50% growth inhibitory concentration (GI50) in the data set on HL-60(TB) (HL-60, read-out: Log10 GI50 (converted)) is 55 µM. Also, the “activity against P388 leukemia” value with P388 leukemia was “inactive”. Besides, the “potency in vitro compared with chloroquine” value with P. falciparum is reported as “comparable to that of chloroquine”. For the same compound, the solubility in water result in [2] is recorded as “insolubility in water”.
On to `C[C@H]1[C@@H](CC(=O)c2ccc(C(=O)C[C@H]3O[C@@H]4O[C@@]5(C)CC[C@H]6[C@H](C)CC[C@@H]([C@H]3C)[C@@]46OO5)cc2)O[C@@H]2O[C@@]3(C)CC[C@H]4[C@H](C)CC[C@@H]1[C@@]24OO3` [Dimer 21], for which the figures for the concentration for 50% growth inhibition (GI50) in the data set with SK-OV-3 (setting [3]) and in the data set on DU-145 (setting [3]) were 263 µM and 6.31 µM, respectively. In the data set with SK-OV-3 (setting [5]), the CC50 was 52.5 µM. Further, in the data set on DU-145 (setting [4]), the IC (TGI) is 31.6 µM.
